Experimental findings from patent US7351800B2, “Stabilized albumin preparations” (Nipro Corporation, priority 2002, dated 2008) are described below.

The structures appear in SMILES notation.

Common to all, as to assay type: physicochemical
Series [1] has as its target T1, HSA (Homo sapiens, UniProt P02768). The experiment in a line: Differential scanning calorimetry (DSC) of HSA solutions: thermal stabilization effect. The note with it: 100-μM HSA, 500-μM agent. (DSC measures the heat that a sample takes up or gives off during a temperature scan.)
Procedure: Each of various medical agents was added to 100-μM HSA ( 1/15 mM phosphate buffer, pH 7.4) and then the following medical agents under test were prepared:
The stabilization effect was evaluated in terms of a thermodynamic viewpoint by calculating a thermal transition temperature (Tm) and a change ΔHcal in enthalpy of transition from a differential scanning calorimetry (DSC) measurement on those medical agents under test (1) to (4). If the thermal transition temperature (Tm) increases, from the thermodynamic viewpoint, it means an increase in stability of the medical agents under test. In addition, if the change ΔHcal in enthalpy of transition increases, it means an increase in stability of the medical agents transition under test.
Those values were analyzed by a DSC thermogram of the HSA solution. Differential scanning calorimetry (DSC method)
For the DSC, measurement was made using the MC-2 differential scanning calorimeter manufactured by MicroCal Co., Ltd. The measuring conditions are shown below.
Albumin content: 100 μM Solvent: 1/15 M phosphate buffer (pH 7.4)
Reversibility of thermal denaturation was confirmed by cooling the albumin solution after first measurement and then heating the albumin solution again. […]
Series [2] has as its target T1, HSA. Briefly: Carbonyl content in HSA after oxidation with AAPH. The note with it: oxidation with excess AAPH; compared with medical agent under test without addition. Here is the method:
An excess amount of an oxidizing agent, 2,2′-azobis-(2-amidinopropane) dihydrochloride (AAPH) was added to HSA to oxidize the HSA. After the oxidation for a predetermined time, the carbonyl content in HSA was determined.

Series [3] has as its target T1, HSA. The experiment in a line: Aggregate-inhibition effect under heat with medium-chain fatty acids other than sodium caprylate (electrophoresis). The settings on record: 5-fold concentration (120 μM) of fatty acid added to 24-μM HSA phosphate buffer (67 mM, pH 7.4). Here is the method: The measurement samples used were such that 5-fold concentrations (120 μM) of the respective fatty acids were each added to a 24-μM HSA phosphate buffer (67 mM, pH 7.4).

T1 sequence (P02768 25-609): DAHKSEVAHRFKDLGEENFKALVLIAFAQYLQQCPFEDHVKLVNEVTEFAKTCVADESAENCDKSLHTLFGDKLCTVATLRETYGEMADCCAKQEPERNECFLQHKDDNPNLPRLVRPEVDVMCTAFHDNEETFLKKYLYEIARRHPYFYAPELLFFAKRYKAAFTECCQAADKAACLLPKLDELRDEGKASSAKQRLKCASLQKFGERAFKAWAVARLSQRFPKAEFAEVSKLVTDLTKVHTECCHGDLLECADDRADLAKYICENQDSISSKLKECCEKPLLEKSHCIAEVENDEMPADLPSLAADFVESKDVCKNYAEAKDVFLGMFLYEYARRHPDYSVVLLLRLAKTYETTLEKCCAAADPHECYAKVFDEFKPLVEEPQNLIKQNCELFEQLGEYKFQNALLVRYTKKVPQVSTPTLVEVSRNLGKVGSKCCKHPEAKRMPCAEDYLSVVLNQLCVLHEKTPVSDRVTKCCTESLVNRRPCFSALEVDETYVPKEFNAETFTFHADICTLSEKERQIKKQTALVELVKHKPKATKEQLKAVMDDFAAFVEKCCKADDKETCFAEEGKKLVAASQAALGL

As to `CSCC[C@H](NC(C)=O)C(=O)O` [N-acetyl methionine], at HSA [1], the “change in Tm compared with HSA solution without added agent (in words)” value is given as “slight increase in Tm” and the “change in ΔHcal compared with HSA solution without added agent (in words)” value is on record as “increase in change ΔHcal in enthalpy transition”. The “carbonyl content in HSA (degree of oxidation)” value on HSA [2] is on record as “significant decrease in carbonyl content”.

Take `CCCCCC(=O)O` [caproic acid]: the “aggregate-inhibition effect under heat” value at HSA [3] was “slightly observed”.

Consider `CCCCCCC(=O)O` [enanthic acid], for which the “aggregate-inhibition effect under heat” value on HSA [3] is on record as “slightly observed”.
